According to the supplement of paper PMC10307832:

Columns and labels:
Assay in all cases: relative viability (nuclei count vs DMSO), 5 days (fraction); higher = more cells survive
[1] = compound: C(C(=O)C(=O)O)Br [Bromopyruvate] + C[C@]1(O)C[C@@H](c2nc(-c3ccc4ccc(-c5ccccc5)nc4c3)c3c(N)nccn32)C1 [Linsitinib] (partner 1 µM)
Procedure, shortened: (§1)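 Lung cancer cell lines were pin-tool dosed in 1536-well plates on the day after seeding, with either a lone drug or a fixed anchor-drug dose plus five library-drug doses (not always all listed) in √10 steps. Nuclei were counted on 4× images after 5 days. Relative viability is the ratio of treated-well to vehicle-well nuclei counts, with each value a median of duplicate plates.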

[2] = compound: C(C(=O)C(=O)O)Br [Bromopyruvate] + Cc1nc(Nc2ncc(C(=O)Nc3c(C)cccc3Cl)s2)cc(N2CCN(CCO)CC2)n1 [Dasatinib] (partner 0.075 µM)
Procedure, shortened: as §1

[3] = compound: C(C(=O)C(=O)O)Br [Bromopyruvate] + Nc1nc2[nH]cc(CCc3ccc(C(=O)N[C@@H](CCC(=O)O)C(=O)O)cc3)c2c(=O)[nH]1 [Pemetrexed] (partner 0.2 µM)
Procedure, shortened: as §1

Bicalutamide + Lapatinib = compound: CC(O)(CS(=O)(=O)c1ccc(F)cc1)C(=O)Nc1ccc(C#N)c(C(F)(F)F)c1 [Bicalutamide] + CS(=O)(=O)CCNCc1ccc(-c2ccc3ncnc(Nc4ccc(OCc5cccc(F)c5)c(Cl)c4)c3c2)o1 [Lapatinib] (partner 2 µM)
Procedure, shortened: as §1

Cell Line HCC-15 has a relative viability ([1]; first compound 1 µM) of 0.84, a relative viability ([1]; first compound 3.162 µM) of 0.867 and a relative viability ([1]; first compound 10 µM) of 0.924. It also gave a relative viability ([1]; first compound 31.62 µM) of 0.824, a relative viability ([1]; first compound 100 µM) of 0.899 and a relative viability ([2]; first compound 1 µM) of 0.654. For the same cell line, the relative viability ([2]; first compound 3.162 µM) was 0.633, the relative viability ([2]; first compound 10 µM) was 0.606 and the relative viability ([2]; first compound 31.62 µM) was 0.744. It also gave a relative viability ([2]; first compound 100 µM) of 0.541, a relative viability ([3]; first compound 1 µM) of 0.241 and a relative viability ([3]; first compound 3.162 µM) of 0.231. It also gave a relative viability ([3]; first compound 10 µM) of 0.227, a relative viability ([3]; first compound 31.62 µM) of 0.229 and a relative viability ([3]; first compound 100 µM) of 0.234. For the same cell line, the relative viability (Bicalutamide + Lapatinib; first compound 0.08 µM) was 0.797, the relative viability (Bicalutamide + Lapatinib; first compound 0.253 µM) was 0.813 and the relative viability (Bicalutamide + Lapatinib; first compound 0.8 µM) was 0.966. The relative viability (Bicalutamide + Lapatinib; first compound 2.53 µM) was 0.875.
COR-L23 showed a relative viability ([1]; first compound 1 µM) of 0.906, a relative viability ([1]; first compound 3.162 µM) of 0.843 and a relative viability ([1]; first compound 10 µM) of 1. The relative viability ([1]; first compound 31.62 µM) was 0.889, the relative viability ([1]; first compound 100 µM) was 0.451 and the relative viability ([2]; first compound 1 µM) was 0.604. The relative viability ([2]; first compound 3.162 µM) was 0.514, the relative viability ([2]; first compound 10 µM) was 0.631 and the relative viability ([2]; first compound 31.62 µM) was 0.449. For the same cell line, the relative viability ([2]; first compound 100 µM) was 0.13, the relative viability ([3]; first compound 1 µM) was 0.184 and the relative viability ([3]; first compound 3.162 µM) was 0.194. For the same cell line, the relative viability ([3]; first compound 10 µM) was 0.195, the relative viability ([3]; first compound 31.62 µM) was 0.183 and the relative viability ([3]; first compound 100 µM) was 0.202. For the same cell line, the relative viability (Bicalutamide + Lapatinib; first compound 0.08 µM) was 0.941, the relative viability (Bicalutamide + Lapatinib; first compound 0.253 µM) was 0.921 and the relative viability (Bicalutamide + Lapatinib; first compound 0.8 µM) was 1.2. For the same cell line, the relative viability (Bicalutamide + Lapatinib; first compound 2.53 µM) was 0.998.
Cell Line HCC-78 has a relative viability ([1]; first compound 1 µM) of 0.457, a relative viability ([1]; first compound 3.162 µM) of 0.603 and a relative viability ([1]; first compound 10 µM) of 0.575. It also gave a relative viability ([1]; first compound 31.62 µM) of 0.629, a relative viability ([1]; first compound 100 µM) of 0.547 and a relative viability ([2]; first compound 1 µM) of 0.342. The relative viability ([2]; first compound 3.162 µM) was 0.409, the relative viability ([2]; first compound 10 µM) was 0.381 and the relative viability ([2]; first compound 31.62 µM) was 0.274. For the same cell line, the relative viability ([2]; first compound 100 µM) was 0.305, the relative viability ([3]; first compound 1 µM) was 0.938 and the relative viability ([3]; first compound 3.162 µM) was 0.92. For the same cell line, the relative viability ([3]; first compound 10 µM) was 0.95, the relative viability ([3]; first compound 31.62 µM) was 0.895 and the relative viability ([3]; first compound 100 µM) was 0.95. It also gave a relative viability (Bicalutamide + Lapatinib; first compound 0.08 µM) of 0.74, a relative viability (Bicalutamide + Lapatinib; first compound 0.253 µM) of 0.977 and a relative viability (Bicalutamide + Lapatinib; first compound 0.8 µM) of 0.91. The relative viability (Bicalutamide + Lapatinib; first compound 2.53 µM) was 0.682.
With NCI-H838 the relative viability ([1]; first compound 1 µM) was 0.966, the relative viability ([1]; first compound 3.162 µM) was 1.05 and the relative viability ([1]; first compound 10 µM) was 1.23. The relative viability ([1]; first compound 31.62 µM) was 1.02, the relative viability ([1]; first compound 100 µM) was 1.1 and the relative viability ([2]; first compound 1 µM) was 0.325. The relative viability ([2]; first compound 3.162 µM) was 0.277, the relative viability ([2]; first compound 10 µM) was 0.208 and the relative viability ([2]; first compound 31.62 µM) was 0.302. For the same cell line, the relative viability ([2]; first compound 100 µM) was 0.264, the relative viability ([3]; first compound 1 µM) was 0.244 and the relative viability ([3]; first compound 3.162 µM) was 0.274. The relative viability ([3]; first compound 10 µM) was 0.242, the relative viability ([3]; first compound 31.62 µM) was 0.232 and the relative viability ([3]; first compound 100 µM) was 0.245. It also gave a relative viability (Bicalutamide + Lapatinib; first compound 0.08 µM) of 1.09, a relative viability (Bicalutamide + Lapatinib; first compound 0.253 µM) of 0.881 and a relative viability (Bicalutamide + Lapatinib; first compound 0.8 µM) of 1.38. For the same cell line, the relative viability (Bicalutamide + Lapatinib; first compound 2.53 µM) was 0.734.
NCI-H2126 was tested, and the relative viability ([1]; first compound 1 µM) was 0.718, the relative viability ([1]; first compound 3.162 µM) was 0.693 and the relative viability ([1]; first compound 10 µM) was 0.697. For the same cell line, the relative viability ([1]; first compound 31.62 µM) was 0.701, the relative viability ([1]; first compound 100 µM) was 0.753 and the relative viability ([2]; first compound 1 µM) was 0.659. It also gave a relative viability ([2]; first compound 3.162 µM) of 0.594, a relative viability ([2]; first compound 10 µM) of 0.611 and a relative viability ([2]; first compound 31.62 µM) of 0.622. It also gave a relative viability ([2]; first compound 100 µM) of 0.587, a relative viability ([3]; first compound 1 µM) of 0.702 and a relative viability ([3]; first compound 3.162 µM) of 0.636. It also gave a relative viability ([3]; first compound 10 µM) of 0.66, a relative viability ([3]; first compound 31.62 µM) of 0.677 and a relative viability ([3]; first compound 100 µM) of 0.695. The relative viability (Bicalutamide + Lapatinib; first compound 0.08 µM) was 0.686, the relative viability (Bicalutamide + Lapatinib; first compound 0.253 µM) was 0.697 and the relative viability (Bicalutamide + Lapatinib; first compound 0.8 µM) was 0.74. For the same cell line, the relative viability (Bicalutamide + Lapatinib; first compound 2.53 µM) was 0.753.
Cell Line BEN has a relative viability ([1]; first compound 1 µM) of 0.97, a relative viability ([1]; first compound 3.162 µM) of 0.869 and a relative viability ([1]; first compound 10 µM) of 0.932. The relative viability ([1]; first compound 31.62 µM) was 0.929, the relative viability ([1]; first compound 100 µM) was 0.936 and the relative viability ([2]; first compound 1 µM) was 0.367. The relative viability ([2]; first compound 3.162 µM) was 0.297, the relative viability ([2]; first compound 10 µM) was 0.354 and the relative viability ([2]; first compound 31.62 µM) was 0.26. For the same cell line, the relative viability ([2]; first compound 100 µM) was 0.379, the relative viability ([3]; first compound 1 µM) was 0.87 and the relative viability ([3]; first compound 3.162 µM) was 0.656. The relative viability ([3]; first compound 10 µM) was 0.833, the relative viability ([3]; first compound 31.62 µM) was 0.62 and the relative viability ([3]; first compound 100 µM) was 0.753. The relative viability (Bicalutamide + Lapatinib; first compound 0.08 µM) was 0.674, the relative viability (Bicalutamide + Lapatinib; first compound 0.253 µM) was 0.589 and the relative viability (Bicalutamide + Lapatinib; first compound 0.8 µM) was 0.984. The relative viability (Bicalutamide + Lapatinib; first compound 2.53 µM) was 0.858.
Cell Line EKVX has a relative viability ([1]; first compound 1 µM) of 0.905, a relative viability ([1]; first compound 3.162 µM) of 1.02 and a relative viability ([1]; first compound 10 µM) of 1.11. For the same cell line, the relative viability ([1]; first compound 31.62 µM) was 0.965, the relative viability ([1]; first compound 100 µM) was 1.13 and the relative viability ([2]; first compound 1 µM) was 0.433. The relative viability ([2]; first compound 3.162 µM) was 0.547, the relative viability ([2]; first compound 10 µM) was 0.578 and the relative viability ([2]; first compound 31.62 µM) was 0.689. The relative viability ([2]; first compound 100 µM) was 0.628, the relative viability ([3]; first compound 1 µM) was 0.396 and the relative viability ([3]; first compound 3.162 µM) was 0.424. The relative viability ([3]; first compound 10 µM) was 0.376, the relative viability ([3]; first compound 31.62 µM) was 0.372 and the relative viability ([3]; first compound 100 µM) was 0.438. The relative viability (Bicalutamide + Lapatinib; first compound 0.08 µM) was 0.194, the relative viability (Bicalutamide + Lapatinib; first compound 0.253 µM) was 0.247 and the relative viability (Bicalutamide + Lapatinib; first compound 0.8 µM) was 0.192. The relative viability (Bicalutamide + Lapatinib; first compound 2.53 µM) was 0.207.
In the case of LXF-289, the relative viability ([1]; first compound 1 µM) is reported as 0.966, the relative viability ([1]; first compound 3.162 µM) is reported as 0.969 and the relative viability ([1]; first compound 10 µM) is reported as 0.981. For the same cell line, the relative viability ([1]; first compound 31.62 µM) was 0.951, the relative viability ([1]; first compound 100 µM) was 1.01 and the relative viability ([2]; first compound 1 µM) was 0.278. For the same cell line, the relative viability ([2]; first compound 3.162 µM) was 0.214, the relative viability ([2]; first compound 10 µM) was 0.262 and the relative viability ([2]; first compound 31.62 µM) was 0.27. It also gave a relative viability ([2]; first compound 100 µM) of 0.183, a relative viability ([3]; first compound 1 µM) of 0.874 and a relative viability ([3]; first compound 3.162 µM) of 0.92. For the same cell line, the relative viability ([3]; first compound 10 µM) was 0.899, the relative viability ([3]; first compound 31.62 µM) was 0.958 and the relative viability ([3]; first compound 100 µM) was 0.941. For the same cell line, the relative viability (Bicalutamide + Lapatinib; first compound 0.08 µM) was 0.92, the relative viability (Bicalutamide + Lapatinib; first compound 0.253 µM) was 0.845 and the relative viability (Bicalutamide + Lapatinib; first compound 0.8 µM) was 0.991. It also gave a relative viability (Bicalutamide + Lapatinib; first compound 2.53 µM) of 0.877.
